Series [1] deals with Haloperidol-Induced Catalepsy. Description: Effect on haloperidol-induced catalepsy. The class given is in vivo, male ddY mice. As to conditions: test compound 10 mg/kg orally; for inhibition in vivo at 10 mg/kg: Mus musculus, po, 1 h, rate of decrease in total score based on control group, read-out: Remission Rate (%); for Number of the Animals Showing Remission: of 5 mice, catalepsy score not more than 4 points; for Total Score: total catalepsy score of 5 mice (25 points at the full). On the procedure:
The experiment was performed by using several groups of 5-weeks-old male ddY mice (weighing 22 to 24 g, Japan SLC), each group consisting of 5 mice. Haloperidol (Janssen Pharmaceutica) suspended in 0.3% CMC was intraperitoneally administered to each mouse at a dose of 1.0 mg/kg. Test compounds were suspended in 0.3% CMC or in injectable distilled water (Otsuka Pharmaceutical Co., Ltd.) containing Tween 80. L-DOPA (Kyowa Hakko Kogyo Co., Ltd.) and benserazide hydrochloride (Kyowa Hakko Kogyo Co., Ltd.) were suspended in 0.3% CMC. One hour after the haloperidol administration, the test compound suspensions and the control suspension [0.3% CMC or injectable distilled water (Otsuka Pharmaceutical Co., Ltd.) containing Tween 80] containing no test compound were orally administered to separate groups of the mice (0.1 ml per 10 g of body weight). One hour after the administration of the test compound, the forelimbs of each mouse and subsequently the hindlimbs of the same mouse were placed on a 4.5 cm-high, 1.0 cm-wide bar and catalepsy was estimated. All of the test compounds were orally administered at a dose of 10 mg/kg, and L-DOPA (100 mg/kg) and benserazide (25 mg/kg) were intraperitoneally administered together as a control experiment. The catalepsy score and the standard of judgment are shown below.
The effect of the compounds was evaluated by the total of the catalepsy scores of five mice in each group (25 points at the full). The groups wherein the total score was not more than 20 points were estimated to be effective. The number of the animals showing remission against catalepsy is the number of the mice for which the catalepsy score was not more than 4 points.

For series [2], the system named is dd-strain male mice. Description: Acute toxicity test (minimum lethal dose, oral). The class given is in vivo. Particulars: oral administration, mortality seven days after administration, three mice per group. As to the method: Test compounds were orally administered to groups of dd-strain male mice weighing 20±1 g, each group consisting of three mice. Seven days after the administration, minimum lethal dose (MLD) of each compound was determined by observing the mortality.

In series [3] the test system is Parkinson's Disease Model in Mouse. As to the kind of experiment: Effect on locomotor activity of Parkinson's disease model in mouse (MPTP-treated mice, Automex-II horizontal activity). It is filed as in vivo, male C57BL/6 mice. As to conditions: Table 3-5, test compound 40 mg/kg orally, normal control 2252 ±210.1, MPTP control 18 ± 8.4. As to the method: 1-Methyl-4-phenyl-1,2,3,6-tetrahydropyridine (MPTP) causes symptoms of Parkinson's disease in humans [Science, 219, 979 (1983)]. It is reported that an experimental Parkinson's disease model was obtained by administering MPTP to mice [Science, 224, 1451 (1984)]. If a compound is effective on the experimental Parkinson's disease model in mouse, the compound can be expected to have a therapeutic effect on Parkinson's disease.
The experiment was performed by using several groups of 7-weeks-old male C57BL/6 mice (weighing 20 to 21 g, Japan SLC), each group consisting of 8 mice. MPTP (Aldrich Chemical Co., Inc.) dissolved in a physiological saline solution (Otsuka Pharmaceutical Co., Ltd.) was intraperitoneally administered to each mouse once a day for five consecutive days at a dose of 30 mg/kg. A test compound was suspended in injectable distilled water (Otsuka Phamaceutical Co., Ltd.) containing Tween 80 [polyoxyethylene (20) sorbitan monooleate]. L-DOPA (Kyowa Hakko Kogyo Co., Ltd.) was suspended in 0.3% CMC (sodium carboxylmethylcellulose). Thirty minutes after the final MPTP administration, the test compound suspensions and the control suspension [injectable distilled water (Otsuka Pharmaceutical Co., Ltd.) containing Tween 80] containing no test compound were orally administered to separate groups of the mice (0.1 ml per 10 g of body weight). The amount of active movements (horizontal activity) of each mouse was measured by using Automex-II (Columbus Instruments International Corp.) for the period of 30 minutes starting 30 minutes after the administration of the test compound. The effect of the compounds was evaluated by comparing the average counts of the active movements of the test compound-administered groups with those of the control groups. A significant difference test was performed by using Student's t-test.

[4] abbreviates: Table 4-2, 0.3% Tween 80 control 25.

Read-outs that look alike come from different tables or passages of the source.

With `CCCn1c(=O)c2c(nc(/C=C/c3cc(OC)c(OC)c(OC)c3)n2C)n(CCC)c1=O` [Compound 5, (E)-7-methyl-1,3-dipropyl-8-(3,4,5-trimethoxystyryl)xanthine], in series [1] (Table 4-1), the inhibition in vivo at 10 mg/kg was found to be 28% and the “Number of the Animals Showing Remission” value worked out at 4. For the same compound, the “Total Score” value in series [1] (Table 4-1, 0.3% CMC control 25) was 18 points. The “MLD” value in series [2] is > 300 mg/kg.

Regarding `CCCn1c(=O)c2c(nc(/C=C/c3ccc(OC)cc3)n2C)n(CCC)c1=O` [Compound 6, (E)-8-(4-methoxystyryl)-7-methyl-1,3-dipropylxanthine], in series [1] (Table 4-1), the inhibition in vivo at 10 mg/kg was 24% and the “Number of the Animals Showing Remission” value worked out at 3. For the same compound, the “Total Score” value in series [1] (Table 4-1, 0.3% CMC control 25) is 19 points. In addition, in series [2], the “MLD” value is > 300 mg/kg.

Consider `C=CCn1c(=O)c2c(nc(/C=C/c3cc(OC)c(OC)c(OC)c3)n2C)n(CC=C)c1=O` [Compound 7, (E)-1,3-diallyl-7-methyl-8-(3,4,5-trimethoxystyryl)xanthine], for which, in series [1] (Table 4-1), the inhibition in vivo at 10 mg/kg worked out at 48% and the “Number of the Animals Showing Remission” value was 4. Further, the “Total Score” value in series [1] (Table 4-1, 0.3% CMC control 25) stood at 13 points. In addition, the “MLD” value in series [2] is listed as > 300 mg/kg.

Regarding `CCCCn1c(=O)c2c(nc(/C=C/c3cc(OC)c(OC)c(OC)c3)n2C)n(CCCC)c1=O` [Compound 8, (E)-1,3-dibutyl-7-methyl-8-(3,4,5-trimethoxystyryl)xanthine], in series [3], the “Amount of Active Movements (average count ± S.E.M)” value is 43 ± 28.3 count. In series [2], the “MLD” value is on record as > 300 mg/kg.

For `CCCn1c(=O)c2c(nc(/C=C/c3ccc(OC)c(C)c3C)n2C)n(CCC)c1=O` [Compound 13, (E)-8-(4-methoxy-2,3-dimethylstyryl)-7-methyl-1,3-dipropylxanthine], in series [1] (Table 4-1), the inhibition in vivo at 10 mg/kg was 80% and the “Number of the Animals Showing Remission” value was 5. For the same compound, the “Total Score” value in series [1] (Table 4-1, 0.3% CMC control 25) is given as 5 points. The “MLD” value in series [2] is > 300 mg/kg.

For the compound `CCCn1c(=O)c2c(nc(/C=C/c3ccc(OC)c(C)c3OC)n2C)n(CCC)c1=O` [Compound 15, (E)-8-(2,4-dimethoxy-3-methylstyryl)-7-methyl-1,3-dipropylxanthine], in series [1] (Table 4-1), the inhibition in vivo at 10 mg/kg was determined as 24% and the “Number of the Animals Showing Remission” value was determined as 4. Further, the “Total Score” value in series [1] (Table 4-1, 0.3% CMC control 25) turned out to be 19 points. In series [2], the “MLD” value is > 300 mg/kg.

Consider `CCCn1c(=O)c2[nH]c(/C=C/c3ccc4c(c3)OCCO4)nc2n(CCC)c1=O` [Compound 16, (E)-8-[2-(1,4-benzodioxan-6-yl)vinyl]-1,3-dipropylxanthine], for which, in series [1] (Table 4-1), the inhibition in vivo at 10 mg/kg worked out at 20% and the “Number of the Animals Showing Remission” value is on record as 4. The “Total Score” value in series [1] (Table 4-1, 0.3% CMC control 25) turned out to be 20 points. Moreover, the “MLD” value in series [2] is given as > 300 mg/kg.

Take `CCCn1c(=O)c2[nH]c(/C=C/c3ccc4c(c3)OCO4)nc2n(CCC)c1=O` [Compound 18, (E)-8-(3,4-methylenedioxystyryl)-1,3-dipropylxanthine]: in series [1] (Table 4-1), the inhibition in vivo at 10 mg/kg was determined as 20% and the “Number of the Animals Showing Remission” value was determined as 4. Besides, the “Total Score” value in series [1] (Table 4-1, 0.3% CMC control 25) was 20 points. In addition, the “MLD” value in series [2] is recorded as > 300 mg/kg.

For `CCCn1c(=O)c2c(nc(/C=C/c3ccc4c(c3)OCO4)n2C)n(CCC)c1=O` [Compound 19, (E)-7-methyl-8-(3,4-methylenedioxystyryl)-1,3-dipropylxanthine], in series [1] (Table 4-1), the inhibition in vivo at 10 mg/kg was 24% and the “Number of the Animals Showing Remission” value was determined as 3. Also, the “Total Score” value in series [1] (Table 4-1, 0.3% CMC control 25) came to 19 points. The “MLD” value in series [2] is listed as > 300 mg/kg.

On to `CCCn1c(=O)c2nc(/C=C/c3ccc(OC)c(OC)c3OC)[nH]c2n(CCC)c1=O` [Compound 20, (E)-1,3-dipropyl-8-(2,3,4-trimethoxystyryl)xanthine], for which, in series [1] (Table 4-1), the inhibition in vivo at 10 mg/kg is 24% and the “Number of the Animals Showing Remission” value amounted to 3. The “Total Score” value in series [1] (Table 4-1, 0.3% CMC control 25) is 19 points. In addition, the “MLD” value in series [2] is > 300 mg/kg.

`CCCn1c(=O)c2c(nc(/C=C/c3cc(OC)c(OC)cc3OC)n2C)n(CCC)c1=O` [Compound 23, (E)-7-methyl-1,3-dipropyl-8-(2,4,5-trimethoxystyryl)xanthine]: in series [1] (Table 4-1), the inhibition in vivo at 10 mg/kg was 28% and the “Number of the Animals Showing Remission” value turned out to be 4. In addition, the “Total Score” value in series [1] (Table 4-1, 0.3% CMC control 25) was 18 points. Moreover, the “MLD” value in series [2] is reported as > 300 mg/kg.

On to `CCCn1c(=O)c2[nH]c(/C=C/c3ccc(OC)cc3OC)nc2n(CCC)c1=O` [Compound 24, (E)-8-(2,4-dimethoxystyryl)-1,3-dipropylxanthine], for which, in series [1] (Table 4-1), the inhibition in vivo at 10 mg/kg was 24% and the “Number of the Animals Showing Remission” value is reported as 4. Besides, in series [1] (Table 4-1, 0.3% CMC control 25), the “Total Score” value is 19 points. Besides, the “MLD” value in series [2] is > 100 mg/kg.

On to `CCCn1c(=O)c2c(nc(/C=C/c3ccc(OC)cc3OC)n2C)n(CCC)c1=O` [Compound 25, (E)-8-(2,4-dimethoxystyryl)-7-methyl-1,3-dipropylxanthine], for which, in series [1] (Table 4-2), the inhibition in vivo at 10 mg/kg was determined as 52% and the “Number of the Animals Showing Remission” value amounted to 5. In series [1] (setting [4]), the “Total Score” value came out at 12 points. The “MLD” value in series [2] is listed as > 300 mg/kg.

As to `CCCn1c(=O)c2c(nc(/C=C/c3ccc(C)c(C)c3)n2C)n(CCC)c1=O` [Compound 31, (E)-8-(3,4-dimethylstyryl)-7-methyl-1,3-dipropylxanthine], in series [1] (Table 4-2), the inhibition in vivo at 10 mg/kg was 28% and the “Number of the Animals Showing Remission” value came to 4. In addition, in series [1] (setting [4]), the “Total Score” value came out at 18 points. Also, the “MLD” value in series [2] is > 100 mg/kg.

For the compound `CCCn1c(=O)c2c(nc(/C=C/c3ccc(OCC)cc3)n2C)n(CCC)c1=O` [Compound 48, (E)-8-(4-ethoxystyryl)-7-methyl-1,3-dipropylxanthine], in series [1] (Table 4-2), the inhibition in vivo at 10 mg/kg was determined as 76% and the “Number of the Animals Showing Remission” value is 5. Further, the “Total Score” value in series [1] (setting [4]) was determined as 6 points. For the same compound, the “MLD” value in series [2] is listed as > 100 mg/kg.

In the case of `CCCOc1ccc(/C=C/c2nc3c(c(=O)n(CCC)c(=O)n3CCC)n2C)cc1` [Compound 50, (E)-7-methyl-8-(4-propoxystyryl)-1,3-dipropylxanthine], in series [1] (Table 4-2), the inhibition in vivo at 10 mg/kg worked out at 24% and the “Number of the Animals Showing Remission” value stood at 3. Moreover, in series [1] (setting [4]), the “Total Score” value is 19 points. Also, the “MLD” value in series [2] is on record as > 100 mg/kg.

In the case of `CCCn1c(=O)c2c(nc(/C=C/c3ccc(O)c(O)c3)n2C)n(CCC)c1=O` [Compound 53, (E)-8-(3,4-dihydroxystyryl)-7-methyl-1,3-dipropylxanthine], in series [1] (Table 4-2), the inhibition in vivo at 10 mg/kg turned out to be 20% and the “Number of the Animals Showing Remission” value is 4. In addition, the “Total Score” value in series [1] (setting [4]) amounted to 20 points. Further, in series [2], the “MLD” value is > 100 mg/kg.

For `CCCn1c(=O)c2[nH]c(/C=C/c3cc(Br)c(OC)c(OC)c3)nc2n(CCC)c1=O` [Compound 59, (E)-8-(3-bromo-4,5-dimethoxystyryl)-1,3-dipropylxanthine], in series [1] (Table 4-2), the inhibition in vivo at 10 mg/kg was found to be 24% and the “Number of the Animals Showing Remission” value is reported as 5. For the same compound, the “Total Score” value in series [1] (setting [4]) is listed as 19 points. Moreover, in series [2], the “MLD” value is > 300 mg/kg.

The values are drawn from EP0565377B1, “Therapeutic agents for use in the treatment of Parkinson's Disease” (Kyowa Hakko Kogyo Co., Ltd., priority 1992, dated 1993).
